Assay results published in US9012678B2, “Processes for the preparation of fesoterodine” (Cadila Healthcare Limited, priority 2010, dated 2015).

Key:
[1] = Stability study for Fesoterodine Fumarate (description, water by KF, related substances by HPLC on storage); assay type: physicochemical
Procedure: As used herein, the term “stable fesoterodine fumarate” fesoterodine fumarate containing any individual impurities less than 0.15% after exposure to a relative humidity of 60% at 25° for a period of at least three months or after exposure to a relative humidity of 75% at 40° for a period of at least three months
2) High Performance Liquid Chromatography (HPLC) Method for Determination of Impurity X in Fesoterodine Fumarate of formula (1)
• Equipment: Shimadzu LC2010C HPLC system equipped with a wavelength UV-VIS detector or equivalent. • Column: Inertsil ODS-3 (250 mm×4.6 mm, 5 μm), Make: GL Sciences Part No: 5020-01732 • Flow rate: 1.2 mL/minute • Column oven temp: 30° C. • Wavelength: 220 nm • Injection volume: 10 μL • Run time: 60 minutes • Diluent: Premixed buffer and acetonitrile in the volume ratio of 75:25. Preparation of Buffer:
Transfer 1 mL orthophosphoric acid in 1000 mL volumetric flask containing about 500 mL of water and make up the volume with water. Filter through 0.2 μm membrane filter paper.
Weigh accurately and transfer about 25 mg of sample of Fesoterodine Fumarate or Fesoterodine Fumarate (technical) into a 50 mL volumetric flask. Add 5 mL tetrahydrofuran, sonicate to dissolve and make up the volume with diluent. Make fresh two preparations at the time of injection.
Inject sample solutions containing the chromatogram upto the end of gradient. Determine the area of each impurity using suitable integrator.

[2] = Particle Size Distribution (PSD) by laser diffraction in a Malvern Master Sizer; assay type: physicochemical
Procedure: Particle Size Distribution (PSD)” is determined by laser diffraction in a Malvern Master Sizer by using known method.

[3] = 1 Month 2 to 8° C., PSD: D(90) = 10 microns
[4] = 1 Month 2 to 8° C., PSD: D(90) = 270 microns
[5] = 1 Month 25° C. ± 2° C./RH 60% ± 5%, PSD: D(90) = 10 microns
[6] = 1 Month 25° C. ± 2° C./RH 60% ± 5%, PSD: D(90) = 270 microns
[7] = 1 Month 40° C. ± 2° C./RH 75% ± 5%, PSD: D(90) = 10 microns
[8] = 1 Month 40° C. ± 2° C./RH 75% ± 5%, PSD: D(90) = 270 microns
[9] = 2 Months 2 to 8° C., PSD: D(90) = 10 microns
[10] = 2 Months 2 to 8° C., PSD: D(90) = 270 microns
[11] = 2 Months 25° C. ± 2° C./RH 60% ± 5%, PSD: D(90) = 270 microns
[12] = 2 Months 25° C. ± 2° C./RH, PSD: D(90) = 10 microns
[13] = 2 Months 40° C. ± 2° C./RH 75% ± 5%, PSD: D(90) = 10 microns
[14] = 2 Months 40° C. ± 2° C./RH 75% ± 5%, PSD: D(90) = 270 microns
[15] = 3 Months 2 to 8° C., PSD: D(90) = 10 microns
[16] = 3 Months 2 to 8° C., PSD: D(90) = 270 microns
[17] = 3 Months 25° C. ± 2° C./RH 60% ± 5%, PSD: D(90) = 10 microns
[18] = 3 Months 25° C. ± 2° C./RH 60% ± 5%, PSD: D(90) = 270 microns
[19] = 3 Months 40° C. ± 2° C./RH 75% ± 5%, PSD: D(90) = 10 microns
[20] = 3 Months 40° C. ± 2° C./RH 75% ± 5%, PSD: D(90) = 270 microns
[21] = Initial, PSD: D(90) = 10 microns
[22] = Initial, PSD: D(90) = 270 microns

Description [1, 3]: White
Related substance (by HPLC) i) Diol [1, 3]: 0.06 % w/w
Related substance (by HPLC) ii) Diester [1, 3]: 0.03 % w/w
Related substance (by HPLC) iii) Oxidized (RRT 1.37) [1, 3]: 0.09 % w/w
Related substance (by HPLC) iv) Any individual impurities [1, 3]: 0.03 % w/w
Related substance (by HPLC) v) Total impurities [1, 3]: 0.21 % w/w
Water by KF [1, 3]: 0.16 % w/w
Description [1, 4]: White
Related substance i) Diol [1, 4]: 0.05%
Related substance ii) Diester [1, 4]: BQL
Related substance iii) Oxidized (RRT 1.37) [1, 4]: BQL
Related substance iv) Any individual impurities [1, 4]: BQL
Related substance v) Total impurities [1, 4]: 0.05%
Water by KF [1, 4]: 0.16 % w/w
Description [1, 5]: White
Related substance (by HPLC) i) Diol [1, 5]: 0.09 % w/w
Related substance (by HPLC) ii) Diester [1, 5]: BQL
Related substance (by HPLC) iii) Oxidized (RRT 1.37) [1, 5]: 0.15 % w/w
Related substance (by HPLC) iv) Any individual impurities [1, 5]: 0.02 % w/w
Related substance (by HPLC) v) Total impurities [1, 5]: 0.26 % w/w
Water by KF [1, 5]: 0.15 % w/w
Description [1, 6]: White
Related substance i) Diol [1, 6]: 0.05%
Related substance ii) Diester [1, 6]: BQL
Related substance iii) Oxidized (RRT 1.37) [1, 6]: BQL
Related substance iv) Any individual impurities [1, 6]: BQL
Related substance v) Total impurities [1, 6]: 0.05%
Water by KF [1, 6]: 0.15 % w/w
Description [1, 7]: White
Related substance (by HPLC) i) Diol [1, 7]: 0.07 % w/w
Related substance (by HPLC) ii) Diester [1, 7]: BQL
Related substance (by HPLC) iii) Oxidized (RRT 1.37) [1, 7]: 0.17 % w/w
Related substance (by HPLC) iv) Any individual impurities [1, 7]: 0.02 % w/w
Related substance (by HPLC) v) Total impurities [1, 7]: 0.28 % w/w
Water by KF [1, 7]: 0.12 % w/w
Description [1, 8]: White
Related substance i) Diol [1, 8]: 0.33%
Related substance ii) Diester [1, 8]: 0.04%
Related substance iii) Oxidized (RRT 1.37) [1, 8]: 0.06%
Related substance iv) Any individual impurities [1, 8]: 0.06%
Related substance v) Total impurities [1, 8]: 0.59%
Water by KF [1, 8]: 0.56 % w/w
Description [1, 9]: White
Related substance (by HPLC) i) Diol [1, 9]: 0.06 % w/w
Related substance (by HPLC) ii) Diester [1, 9]: BQL
Related substance (by HPLC) iii) Oxidized (RRT 1.37) [1, 9]: 0.09 % w/w
Related substance (by HPLC) iv) Any individual impurities [1, 9]: 0.03 % w/w
Related substance (by HPLC) v) Total impurities [1, 9]: 0.21 % w/w
Water by KF [1, 9]: 0.16 % w/w
Description [1, 10]: White
Related substance i) Diol [1, 10]: 0.06%
Related substance ii) Diester [1, 10]: BQL
Related substance iii) Oxidized (RRT 1.37) [1, 10]: BQL
Related substance iv) Any individual impurities [1, 10]: BQL
Related substance v) Total impurities [1, 10]: 0.06%
Water by KF [1, 10]: 0.16 % w/w
Description [1, 11]: White
Related substance i) Diol [1, 11]: 0.04%
Related substance ii) Diester [1, 11]: BQL
Related substance iii) Oxidized (RRT 1.37) [1, 11]: BQL
Related substance iv) Any individual impurities [1, 11]: BQL
Related substance v) Total impurities [1, 11]: 0.04%
Water by KF [1, 11]: 0.15 % w/w
Description [1, 12]: White
Related substance (by HPLC) i) Diol [1, 12]: 0.09 % w/w
Related substance (by HPLC) ii) Diester [1, 12]: BQL
Related substance (by HPLC) iii) Oxidized (RRT 1.37) [1, 12]: 0.17 % w/w
Related substance (by HPLC) iv) Any individual impurities [1, 12]: 0.02 % w/w
Related substance (by HPLC) v) Total impurities [1, 12]: 0.26 % w/w
Water by KF [1, 12]: 0.15 % w/w
Description [1, 13]: White
Related substance (by HPLC) i) Diol [1, 13]: 0.07 % w/w
Related substance (by HPLC) ii) Diester [1, 13]: BQL
Related substance (by HPLC) iii) Oxidized (RRT 1.37) [1, 13]: 0.27 % w/w
Related substance (by HPLC) iv) Any individual impurities [1, 13]: 0.04 % w/w
Related substance (by HPLC) v) Total impurities [1, 13]: 0.49 % w/w
Water by KF [1, 13]: 0.12 % w/w
Description [1, 14]: White
Related substance i) Diol [1, 14]: 0.5%
Related substance ii) Diester [1, 14]: 0.05%
Related substance iii) Oxidized (RRT 1.37) [1, 14]: 0.05%
Related substance iv) Any individual impurities [1, 14]: 0.07%
Related substance v) Total impurities [1, 14]: 0.22%
Water by KF [1, 14]: 0.2 % w/w
Description [1, 15]: White
Related substance (by HPLC) i) Diol [1, 15]: 0.06 % w/w
Related substance (by HPLC) ii) Diester [1, 15]: 0.03 % w/w
Related substance (by HPLC) iii) Oxidized (RRT 1.37) [1, 15]: 0.08 % w/w
Related substance (by HPLC) iv) Any individual impurities [1, 15]: 0.03 % w/w
Related substance (by HPLC) v) Total impurities [1, 15]: 0.21 % w/w
Water by KF [1, 15]: 0.16 % w/w
Description [1, 16]: White
Related substance i) Diol [1, 16]: 0.06%
Related substance ii) Diester [1, 16]: BQL
Related substance iii) Oxidized (RRT 1.37) [1, 16]: BQL
Related substance iv) Any individual impurities [1, 16]: BQL
Related substance v) Total impurities [1, 16]: 0.06%
Water by KF [1, 16]: 0.16 % w/w
Description [1, 17]: White
Related substance (by HPLC) i) Diol [1, 17]: 0.09 % w/w
Related substance (by HPLC) ii) Diester [1, 17]: BQL
Related substance (by HPLC) iii) Oxidized (RRT 1.37) [1, 17]: 0.19 % w/w
Related substance (by HPLC) iv) Any individual impurities [1, 17]: 0.02 % w/w
Related substance (by HPLC) v) Total impurities [1, 17]: 0.26 % w/w
Water by KF [1, 17]: 0.16 % w/w
Description [1, 18]: White
Related substance i) Diol [1, 18]: 0.06%
Related substance ii) Diester [1, 18]: BQL
Related substance iii) Oxidized (RRT 1.37) [1, 18]: BQL
Related substance iv) Any individual impurities [1, 18]: BQL
Related substance v) Total impurities [1, 18]: 0.06%
Water by KF [1, 18]: 0.16 % w/w
Description [1, 19]: White
Related substance (by HPLC) i) Diol [1, 19]: 0.07 % w/w
Related substance (by HPLC) ii) Diester [1, 19]: BQL
Related substance (by HPLC) iii) Oxidized (RRT 1.37) [1, 19]: 0.29 % w/w
Related substance (by HPLC) iv) Any individual impurities [1, 19]: 0.04 % w/w
Related substance (by HPLC) v) Total impurities [1, 19]: 0.49 % w/w
Water by KF [1, 19]: 0.12 % w/w
Description [1, 20]: White
Related substance i) Diol [1, 20]: 0.6%
Related substance ii) Diester [1, 20]: 0.06%
Related substance iii) Oxidized (RRT 1.37) [1, 20]: 0.06%
Related substance iv) Any individual impurities [1, 20]: 0.04%
Related substance v) Total impurities [1, 20]: 0.22%
Water by KF [1, 20]: 0.12 % w/w
Description [1, 21]: White
Related substance (by HPLC) i) Diol [1, 21]: 0.06 % w/w
Related substance (by HPLC) ii) Diester [1, 21]: 0.02 % w/w
Related substance (by HPLC) iii) Oxidized (RRT 1.37) [1, 21]: 0.05 % w/w
Related substance (by HPLC) iv) Any individual impurities [1, 21]: 0.02 % w/w
Related substance (by HPLC) v) Total impurities [1, 21]: 0.15 % w/w
Water by KF [1, 21]: 0.2 % w/w
Description [1, 22]: White
Related substance i) Diol [1, 22]: 0.1%
Related substance ii) Diester [1, 22]: 0.05%
Related substance iii) Oxidized (RRT 1.37) [1, 22]: 0.06%
Related substance iv) Any individual impurities [1, 22]: 0.02%
Related substance v) Total impurities [1, 22]: 0.21%
Water by KF [1, 22]: 0.33 % w/w
degradation of fesoterodine under stress conditions ([1]; fesoterodine fumarate with higher particle size): significantly slow down the degradation
PSD: D(90) ([2]; batch from IPA/diisopropyl ether, D(90) less than 200 microns): PSD: D(90) = 10 microns
PSD: D(90) ([2]; batch of Example 16 (methyl ethyl ketone/cyclohexane, seeded), D(90) higher than 200 microns): PSD: D(90) = 270 microns
Compound: CC(C)C(=O)Oc1ccc(CO)cc1[C@H](CCN(C(C)C)C(C)C)c1ccccc1.O=C(O)/C=C/C(=O)O [Fesoterodine Fumarate, isobutyric acid 2-[(R)-3-diisopropylammonium-1-phenylpropyl)-4-(hydroxy-methyl)phenyl ester hydrogen fumarate]
